Data taken from ChEMBL document CHEMBL1201862, “PubChem BioAssay data set” (2004).
Several values for one entry are separate records, joined by “and”; a condition that tells them apart may be missing. Equal entries are not always repeated.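 Growth conditions: 96-well plates. Treatment: test compound, 48 hours, 5 concentrations. Analysis: linear interpolation between bracketing concentrations; unreached endpoints set to highest concentration. The concentration for 50% growth inhibition is given as GI50.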 Activity calls are given as the source filed them. Cut-off read from the data, not from the text of the source: active = GI50 up to about 1.1 µM and inactive = higher.

Experiments:
Test in all cases: NCI tumour cell line growth inhibition, 48 h
786-0 = system: 786-0
A498 = system: A498
A549 = system: A549
ACHN = system: ACHN
CAKI-1 = system: CAKI-1
CCRF-CEM = system: CCRF-CEM
COLO 205 = system: COLO 205
DU-145 = system: DU-145
EKVX = system: EKVX
HCC 2998 = system: HCC 2998
HCT-116 = system: HCT-116
HCT-15 = system: HCT-15
HL-60 = system: HL-60
HOP-62 = system: HOP-62
HOP-92 = system: HOP-92
HT-29 = system: HT-29
Hs-578T = system: Hs-578T
IGROV-1 = system: IGROV-1
K562 = system: K562
KM12 = system: KM12
LOX IMVI = system: LOX IMVI
M14 = system: M14
MCF7 = system: MCF7
MDA-MB-231 = system: MDA-MB-231
MDA-MB-435 = system: MDA-MB-435
MDA-N = system: MDA-N
MOLT-4 = system: MOLT-4
Malme-3M = system: Malme-3M
NCI-H226 = system: NCI-H226
NCI-H23 = system: NCI-H23
NCI-H460 = system: NCI-H460
NCI-H522 = system: NCI-H522
NCI/ADR-RES = system: NCI/ADR-RES
OVCAR-3 = system: OVCAR-3
OVCAR-4 = system: OVCAR-4
OVCAR-5 = system: OVCAR-5
OVCAR-8 = system: OVCAR-8
PC-3 = system: PC-3
RPMI-8226 = system: RPMI-8226
RXF 393 = system: RXF 393
SF-268 = system: SF-268
SF-295 = system: SF-295
SF-539 = system: SF-539
SK-MEL-28 = system: SK-MEL-28
SK-MEL-2 = system: SK-MEL-2
SK-MEL-5 = system: SK-MEL-5
SN12C = system: SN12C
SNB-19 = system: SNB-19
SR = system: SR
SW-620 = system: SW-620
T47D = system: T47D
TK-10 = system: TK-10
U-251 = system: U-251
UACC-257 = system: UACC-257
UACC-62 = system: UACC-62
UO-31 = system: UO-31
SK-OV-3 = system: SK-OV-3
SNB-75 = system: SNB-75

Measured: GI50

CC1CC(C)CC(NC2=NCCO2)C1 (centres undefined)
> 100 µM: HCT-15
inactive: 786-0 > 100 µM | A498 > 100 µM | A549 > 100 µM | ACHN > 100 µM | CAKI-1 > 100 µM | CCRF-CEM > 100 µM | COLO 205 > 100 µM | DU-145 > 100 µM | EKVX > 100 µM | HCC 2998 > 100 µM | HCT-116 > 100 µM | HL-60 > 100 µM | HOP-62 > 100 µM | HOP-92 > 100 µM | HT-29 > 100 µM | Hs-578T > 100 µM | IGROV-1 > 100 µM | K562 > 100 µM | KM12 > 100 µM | LOX IMVI > 100 µM | M14 > 100 µM | MCF7 > 100 µM | MDA-MB-231 > 100 µM | MDA-MB-435 > 100 µM | MDA-N > 100 µM | MOLT-4 > 100 µM | Malme-3M > 100 µM | NCI-H226 > 100 µM | NCI-H23 > 100 µM | NCI-H460 > 100 µM | NCI-H522 > 100 µM | NCI/ADR-RES > 100 µM | OVCAR-3 > 100 µM | OVCAR-4 > 100 µM | OVCAR-5 > 100 µM | OVCAR-8 > 100 µM | PC-3 > 100 µM | RPMI-8226 > 100 µM | RXF 393 > 100 µM | SF-268 > 100 µM | SF-295 > 100 µM | SF-539 > 100 µM | SK-MEL-28 > 100 µM | SK-MEL-2 > 100 µM | SK-MEL-5 > 100 µM | SN12C > 100 µM | SNB-19 > 100 µM | SR > 100 µM | SW-620 > 100 µM | T47D > 100 µM | TK-10 > 100 µM | U-251 > 100 µM | UACC-257 > 100 µM | UACC-62 > 100 µM | UO-31 > 100 µM

Cc1c(NC(=O)CCl)c(=O)oc2c(C)c3occc(=O)c3cc12
inactive: 786-0 13.9 µM | A498 16.9 µM | A549 14.5 µM | ACHN 16.6 µM | CAKI-1 12.3 µM | CCRF-CEM 3.48 µM | COLO 205 14.3 µM | DU-145 23.7 µM | EKVX 18.9 µM | HCC 2998 16.9 µM | HCT-116 11.6 µM | HL-60 5.28 µM | HOP-62 13.8 µM | HOP-92 14.2 µM | HT-29 14.9 µM | Hs-578T 15.5 µM | IGROV-1 11.6 µM | K562 10.1 µM | KM12 11.7 µM | M14 13.1 µM | MCF7 6.79 µM | MDA-N 16.1 µM | MOLT-4 1.37 µM | Malme-3M 21.1 µM | NCI-H460 10.7 µM | NCI/ADR-RES 18.6 µM | OVCAR-4 11.5 µM | OVCAR-5 18.5 µM | OVCAR-8 13.9 µM | RPMI-8226 7.87 µM | SF-268 6.95 µM | SF-295 12.6 µM | SK-MEL-28 12.8 µM | SK-MEL-5 10.9 µM | SK-OV-3 18.2 µM | SNB-19 15.8 µM | SNB-75 2.39 µM | SR 6.49 µM | SW-620 11.5 µM | T47D 14 µM | TK-10 14.5 µM | U-251 14.4 µM | UACC-257 12.1 µM | UO-31 10.5 µM
> 10 µM: HCT-15

CCOP(=O)(OCC)C(C)(C)N(C)/C(F)=N/C(F)(F)F
inactive: 786-0 > 100 µM | A549 > 100 µM | ACHN > 100 µM | CAKI-1 > 100 µM | CCRF-CEM > 100 µM | COLO 205 > 100 µM | DU-145 > 100 µM | EKVX > 100 µM | HCC 2998 > 100 µM | HCT-116 > 100 µM | HL-60 > 100 µM | HOP-62 > 100 µM | HOP-92 > 100 µM | HT-29 > 100 µM | Hs-578T > 100 µM | IGROV-1 > 100 µM | K562 > 100 µM | KM12 > 100 µM | LOX IMVI > 100 µM | M14 > 100 µM | MCF7 > 100 µM | MDA-MB-231 > 100 µM | MDA-MB-435 > 100 µM | MDA-N > 100 µM | MOLT-4 > 100 µM | Malme-3M > 100 µM | NCI-H226 > 100 µM | NCI-H23 > 100 µM | NCI-H460 > 100 µM | NCI/ADR-RES > 100 µM | OVCAR-3 > 100 µM | OVCAR-4 > 100 µM | OVCAR-5 > 100 µM | OVCAR-8 > 100 µM | PC-3 > 100 µM | RPMI-8226 > 100 µM | SF-268 > 100 µM | SF-295 > 100 µM | SF-539 > 100 µM | SK-MEL-28 > 100 µM | SK-MEL-2 > 100 µM | SK-MEL-5 > 100 µM | SK-OV-3 > 100 µM | SN12C > 100 µM | SNB-75 > 100 µM | SR > 100 µM | SW-620 > 100 µM | T47D > 100 µM | TK-10 > 100 µM | U-251 > 100 µM | UACC-257 > 100 µM | UACC-62 > 100 µM | UO-31 > 100 µM
> 100 µM: HCT-15

CSCCC(NCc1c(O)ccc2c(-c3ccccc3)cc(=O)oc12)C(=O)O (centres undefined)
> 100 µM: HCT-15
inactive: 786-0 > 100 µM | A549 > 100 µM | ACHN > 100 µM | CAKI-1 > 100 µM | CCRF-CEM > 100 µM | COLO 205 > 100 µM | DU-145 > 100 µM | EKVX > 100 µM | HCC 2998 > 100 µM | HCT-116 > 100 µM | HL-60 > 100 µM | HOP-62 > 100 µM | HOP-92 > 100 µM | HT-29 > 100 µM | Hs-578T > 100 µM | IGROV-1 > 100 µM | K562 > 100 µM | KM12 > 100 µM | LOX IMVI > 100 µM | M14 > 100 µM | MCF7 > 100 µM | MDA-MB-231 > 100 µM | MDA-MB-435 > 100 µM | MDA-N > 100 µM | MOLT-4 > 100 µM | Malme-3M > 100 µM | NCI-H226 > 100 µM | NCI-H23 > 100 µM | NCI-H460 > 100 µM | NCI-H522 > 100 µM | NCI/ADR-RES > 100 µM | OVCAR-3 > 100 µM | OVCAR-4 > 100 µM | OVCAR-5 > 100 µM | OVCAR-8 > 100 µM | PC-3 > 100 µM | RPMI-8226 > 100 µM | RXF 393 > 100 µM | SF-268 > 100 µM | SF-295 > 100 µM | SF-539 > 100 µM | SK-MEL-28 > 100 µM | SK-MEL-2 > 100 µM | SK-MEL-5 > 100 µM | SK-OV-3 > 100 µM | SN12C > 100 µM | SNB-19 > 100 µM | SNB-75 > 100 µM | SR > 100 µM | SW-620 > 100 µM | T47D > 100 µM | TK-10 > 100 µM | U-251 > 100 µM | UACC-257 > 100 µM | UACC-62 > 100 µM | UO-31 > 100 µM

COC(=O)C1=COC(C)C2CN3CCc4c([nH]c5ccccc45)C3CC12 (centres undefined)
inactive: HOP-62 > 100 µM and 55.1 µM | Hs-578T 49 µM and 26 µM | MDA-MB-435 52.1 µM | OVCAR-5 > 100 µM | SF-268 54.1 µM | SK-OV-3 58.7 µM | SNB-19 84.5 µM

C[N+](C)(C)C1(C(=O)[O-])CC1
> 100 µM: HCT-15
inactive: 786-0 > 100 µM | A498 > 100 µM | A549 > 100 µM | ACHN > 100 µM | CCRF-CEM > 100 µM | DU-145 > 100 µM | EKVX > 100 µM | HCC 2998 > 100 µM | HCT-116 > 100 µM | HL-60 > 100 µM | HOP-62 > 100 µM | HOP-92 > 100 µM | HT-29 > 100 µM | Hs-578T > 100 µM | IGROV-1 > 100 µM | K562 > 100 µM | LOX IMVI > 100 µM | M14 > 100 µM | MCF7 > 100 µM | MDA-MB-435 > 100 µM | MDA-N > 100 µM | MOLT-4 > 100 µM | Malme-3M > 100 µM | NCI-H226 > 100 µM | NCI-H23 > 100 µM | NCI-H460 > 100 µM | NCI-H522 > 100 µM | NCI/ADR-RES > 100 µM | OVCAR-3 > 100 µM | OVCAR-4 > 100 µM | OVCAR-5 > 100 µM | OVCAR-8 > 100 µM | PC-3 > 100 µM | RPMI-8226 > 100 µM | RXF 393 > 100 µM | SF-268 > 100 µM | SF-295 > 100 µM | SF-539 > 100 µM | SK-MEL-28 > 100 µM | SK-MEL-5 > 100 µM | SN12C > 100 µM | SNB-19 > 100 µM | SNB-75 > 100 µM | SR > 100 µM | SW-620 > 100 µM | T47D 72.1 µM | TK-10 > 100 µM | U-251 > 100 µM | UACC-257 > 100 µM
